ChEMBL document CHEMBL1159245, “Antineoplastic agents, 326. The stereochemistry of bastadins 8, 10, and 12 from the Bismarck archipelago marine sponge Ianthella basta” (J Nat Prod, 1995)
In brackets after ≈: the same amount, converted by molar mass. Activity calls are given as the source filed them. No cut-off for these calls is given here.

Legend:
[1] = tested on: Cryptococcus neoformans; experiment: Antifungal activity against Cryptococcus neoformans ATCC 90112 at […] after 42 hrs; format: functional, organism-based
[2] = tested on: Neisseria gonorrhoeae; experiment: Antibacterial activity against Neisseria gonorrhoeae ATCC 49226 at […] after 16 hrs; format: functional, organism-based
[3] = tested on: Escherichia coli; experiment: Antibacterial activity against Escherichia coli ATCC 25922 at […] after 16 hrs; format: functional, organism-based
[4] = tested on: P388; experiment: Growth inhibition of mouse P388 cells; format: functional; conditions: read-out: ED50 (the source's name)
[5] = Growth inhibition of human SF295 cells; format: cell-based, SF-295; conditions: read-out: ED50 (the source's name)
[6] = tested on: OVCAR-3; experiment: Growth inhibition of human OVCAR-3 cells; format: functional; conditions: read-out: ED50 (the source's name)
[7] = tested on: A498; experiment: Growth inhibition of human A498 cells; format: functional; conditions: read-out: ED50 (the source's name)
[8] = tested on: Staphylococcus aureus; experiment: Antibacterial activity against Staphylococcus aureus ATCC 29213 assessed per 6 mm disk after 16 hrs; format: functional
[9] = tested on: KM-20L2; experiment: Growth inhibition of human KM20L2 cells; format: functional; conditions: read-out: ED50 (the source's name)
[10] = tested on: SK-MEL-5; experiment: Growth inhibition of human SK-MEL-5 cells; format: functional; conditions: read-out: ED50 (the source's name)
[11] = tested on: NCI-H460; experiment: Growth inhibition of human NCI-H460 cells; format: functional; conditions: read-out: ED50 (the source's name)
[12] = tested on: Candida albicans; experiment: Antifungal activity against Candida albicans ATCC 90028 at […] after 42 hrs; format: functional, organism-based
[13] = tested on: Enterococcus faecalis; experiment: Antibacterial activity against Enterococcus faecalis ATCC 29212 assessed per 6 mm disk after 16 hrs; format: functional
[14] = tested on: Bacillus subtilis; experiment: Antibacterial activity against Bacillus subtilis; format: functional

EC50 [4] [µg/mL]	EC50 [6] [µg/mL]	MIC [8] [µg]	EC50 [10] [µg/mL]	EC50 [11] [µg/mL]	MIC [13] [µg]	MIC [14] [µg/mL]	SMILES	Activity [1]	Activity [2]	Activity [3]	GI50 [5] [µg/mL]	EC50 [7] [µg/mL]	EC50 [9] [µg/mL]	Activity [12]
22.6 (≈ 21.8 µM)	> 10	0.195	9.9 (≈ 9.56 µM)	> 10	<50	–	O=C1NCCc2cc(Br)c(O)c(c2)Oc2ccc(cc2Br)[C@H](O)CNC(=O)/C(=N/O)Cc2cc(Br)c(O)c(c2)Oc2c(Br)cc(cc2Br)C/C1=N\O [BASTADIN 8]	inactive	inactive	inactive	> 10	7 (≈ 6.76 µM)	> 10	inactive
9.1 (≈ 8.79 µM)	2 (≈ 1.93 µM)	6.25	2.2 (≈ 2.13 µM)	2.3 (≈ 2.22 µM)	50	–	O=C1NCCc2cc(Br)c(O)c(c2)Oc2c(Br)cc(cc2Br)[C@H](O)CNC(=O)/C(=N/O)Cc2cc(Br)c(O)c(c2)Oc2ccc(cc2Br)C/C1=N\O [BASTADIN 12]	inactive	inactive	inactive	2.4 (≈ 2.32 µM)	2.1 (≈ 2.03 µM)	2.1 (≈ 2.03 µM)	inactive
–	–	–	–	–	–	6 (≈ 6.38 µM)	O=C1NCCc2ccc(c(Br)c2)Oc2cc(ccc2O)CCNC(=O)/C(=N/O)Cc2cc(Br)c(O)c(c2)Oc2c(Br)cc(cc2Br)C/C1=N\O [BASTADIN 13]	–	–	–	–	–	–	–

SMILES	EC50 [4] [µg/mL]	EC50 [6] [µg/mL]	MIC [8] [µg]	EC50 [10] [µg/mL]	EC50 [11] [µg/mL]	MIC [13] [µg]	MIC [14] [µg/mL]	Activity [1]	Activity [2]	Activity [3]	GI50 [5] [µg/mL]	EC50 [7] [µg/mL]	EC50 [9] [µg/mL]	Activity [12]
O=C1NCCc2cc(Br)c(O)c(c2)Oc2ccc(cc2Br)[C@H](O)CNC(=O)/C(=N/O)Cc2cc(Br)c(O)c(c2)Oc2ccc(cc2Br)C/C1=N\O [BASTADIN 10]	> 10	2.9 (≈ 3.03 µM)	1.56	3.7 (≈ 3.87 µM)	3.4 (≈ 3.56 µM)	6.25	–	inactive	inactive	inactive	3.2 (≈ 3.35 µM)	4.5 (≈ 4.71 µM)	2 (≈ 2.09 µM)	inactive
